Measurements published in ChEMBL document CHEMBL3232941, “Docking and SAR studies of calystegines: binding orientation and influence on pharmacological chaperone effects for Gaucher's disease” (Bioorg Med Chem, 2014).
pIC50, pKi: −log10 of the molar value.

What was measured:
[1] = target: T1, Lysosomal acid glucosylceramidase (Homo sapiens, UniProt P04062); test: Competitive inhibition of human lysosomal beta-glucocerebrosidase using 4-methylumbelliferyl-beta-D-glucopyranoside as substrate preincubated for 45 mins before substrate addition measured after 30 mins by double-reciprocal plot analysis
T1 sequence (P04062 whole entry): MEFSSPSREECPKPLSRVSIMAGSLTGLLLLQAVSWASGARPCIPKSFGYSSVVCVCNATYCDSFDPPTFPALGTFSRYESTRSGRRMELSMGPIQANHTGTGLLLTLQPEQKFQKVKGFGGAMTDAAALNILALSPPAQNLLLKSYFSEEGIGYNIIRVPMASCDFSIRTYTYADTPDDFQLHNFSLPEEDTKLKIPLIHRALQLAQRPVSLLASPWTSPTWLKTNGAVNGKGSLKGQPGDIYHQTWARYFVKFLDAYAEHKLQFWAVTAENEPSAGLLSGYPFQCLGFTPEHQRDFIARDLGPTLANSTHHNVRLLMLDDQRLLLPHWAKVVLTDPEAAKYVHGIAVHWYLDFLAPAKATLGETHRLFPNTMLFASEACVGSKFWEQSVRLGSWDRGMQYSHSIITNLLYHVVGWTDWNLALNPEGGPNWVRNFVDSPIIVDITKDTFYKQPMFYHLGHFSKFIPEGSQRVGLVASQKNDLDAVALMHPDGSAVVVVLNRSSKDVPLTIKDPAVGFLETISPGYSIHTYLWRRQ

[2] = target: T1, Lysosomal acid glucosylceramidase; test: Inhibition of human lysosomal beta-glucocerebrosidase using 4-methylumbelliferyl-beta-D-glucopyranoside as substrate preincubated for 45 mins before substrate addition measured after 30 mins by fluorescence spectrophotometer analysis
[3] = target: T2, Lysosomal acid glucosylceramidase (Homo sapiens) (UniProt P04062); test: Inhibition of human lysosomal beta-glucocerebrosidase using 4-methylumbelliferyl-beta-D-glucopyranoside as substrate at 1000 uM preincubated for 45 mins before substrate addition measured after 30 mins by fluorescence spectrophotometer analysis
T2 sequence (whole entry): T1 sequence (P04062 whole entry)

Compound	pKi [1]	pIC50 [2]	inhibition [3]
O[C@@H]1C[C@H]2CC[C@](O)(N2)[C@H]1O	5.20	4.80	
O[C@@H]1[C@H](O)[C@H]2CC[C@](O)(N2)[C@H]1O	4.01	3.76	
O[C@@H]1[C@@H](O)[C@H]2CC[C@](O)(N2)[C@@H]1O	3.70	3.21	
O[C@@H]1[C@@H](O)[C@H](O)[C@]2(O)CC[C@H]1N2 [CALYSTEGINE B2]	5.42	5.29	
O[C@@H]1[C@@H](O)C[C@]2(O)CC[C@H]1N2			< 50%
